Where two headings read alike, the source gives them in different places.
Key:
Assay type in all cases: biochemical
PRAK = molecular target: T1, PRAK (Homo sapiens, UniProt Q8IW41); assay: Kinome profiling PRAK; conditions: read-out: Inhibitory activity PRAK; for inhibition at 0.1 µM: 100 nM
T1 sequence (Q8IW41 1-473): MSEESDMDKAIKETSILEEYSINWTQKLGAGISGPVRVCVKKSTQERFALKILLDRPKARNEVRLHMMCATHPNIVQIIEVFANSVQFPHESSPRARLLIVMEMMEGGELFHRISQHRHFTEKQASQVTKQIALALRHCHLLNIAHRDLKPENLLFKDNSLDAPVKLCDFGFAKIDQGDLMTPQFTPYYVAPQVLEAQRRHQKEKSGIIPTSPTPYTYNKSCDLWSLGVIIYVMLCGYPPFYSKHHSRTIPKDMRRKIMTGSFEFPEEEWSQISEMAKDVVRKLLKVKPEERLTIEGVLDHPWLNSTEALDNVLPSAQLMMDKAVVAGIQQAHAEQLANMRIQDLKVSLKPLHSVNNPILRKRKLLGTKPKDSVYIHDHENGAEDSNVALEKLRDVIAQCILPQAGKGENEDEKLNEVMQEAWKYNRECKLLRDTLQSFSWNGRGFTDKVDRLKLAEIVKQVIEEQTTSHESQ
Protocol: (§1) . The kinome-wide selectivity was determined following the methods previously reported by Mohedas et al., ACS Chem Biol 2013, 8, 1291-1302 and Sanvitale et al., PLoS One 2013, 8, e62721.

SGK2 = molecular target: T2, SGK2 (Homo sapiens, UniProt Q9HBY8); assay: Kinome profiling SGK2; conditions: read-out: Inhibitory activity SGK2; for inhibition at 0.1 µM: 100 nM
T2 sequence (Q9HBY8 1-367): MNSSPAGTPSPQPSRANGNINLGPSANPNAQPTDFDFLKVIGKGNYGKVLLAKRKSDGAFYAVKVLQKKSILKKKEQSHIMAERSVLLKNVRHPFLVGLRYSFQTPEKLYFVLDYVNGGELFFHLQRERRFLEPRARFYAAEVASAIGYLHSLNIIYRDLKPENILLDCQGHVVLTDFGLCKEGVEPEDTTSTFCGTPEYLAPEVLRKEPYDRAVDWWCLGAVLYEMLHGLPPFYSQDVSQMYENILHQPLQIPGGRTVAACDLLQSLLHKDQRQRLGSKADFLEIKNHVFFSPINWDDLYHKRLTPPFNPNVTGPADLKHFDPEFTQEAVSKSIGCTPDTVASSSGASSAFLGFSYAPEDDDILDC
Protocol: as §1

PIM3 = PIM3 (Homo sapiens, UniProt Q86V86); assay: Kinome profiling PIM3; conditions: read-out: Inhibitory activity PIM3; for inhibition at 0.1 µM: 100 nM
Protocol: as §1

NEK6 = NEK6 (Homo sapiens, UniProt Q9HC98); assay: Kinome profiling NEK6; conditions: read-out: Inhibitory activity NEK6; for inhibition at 0.1 µM: 100 nM
NEK6, sequence (Q9HC98 whole entry): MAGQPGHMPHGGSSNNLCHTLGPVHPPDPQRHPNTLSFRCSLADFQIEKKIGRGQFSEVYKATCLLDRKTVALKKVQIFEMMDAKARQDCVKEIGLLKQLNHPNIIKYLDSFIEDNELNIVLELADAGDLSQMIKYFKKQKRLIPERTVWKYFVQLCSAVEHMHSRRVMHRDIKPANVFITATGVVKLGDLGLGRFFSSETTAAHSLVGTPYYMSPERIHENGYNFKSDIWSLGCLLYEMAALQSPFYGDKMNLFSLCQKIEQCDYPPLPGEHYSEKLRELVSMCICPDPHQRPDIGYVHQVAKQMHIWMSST
Protocol: as §1

JAK1 = JAK1 (Homo sapiens, UniProt P23458); assay: Kinome profiling JAK1; conditions: read-out: Inhibitory activity JAK1; for inhibition at 0.1 µM: 100 nM
JAK1, sequence (P23458 whole entry): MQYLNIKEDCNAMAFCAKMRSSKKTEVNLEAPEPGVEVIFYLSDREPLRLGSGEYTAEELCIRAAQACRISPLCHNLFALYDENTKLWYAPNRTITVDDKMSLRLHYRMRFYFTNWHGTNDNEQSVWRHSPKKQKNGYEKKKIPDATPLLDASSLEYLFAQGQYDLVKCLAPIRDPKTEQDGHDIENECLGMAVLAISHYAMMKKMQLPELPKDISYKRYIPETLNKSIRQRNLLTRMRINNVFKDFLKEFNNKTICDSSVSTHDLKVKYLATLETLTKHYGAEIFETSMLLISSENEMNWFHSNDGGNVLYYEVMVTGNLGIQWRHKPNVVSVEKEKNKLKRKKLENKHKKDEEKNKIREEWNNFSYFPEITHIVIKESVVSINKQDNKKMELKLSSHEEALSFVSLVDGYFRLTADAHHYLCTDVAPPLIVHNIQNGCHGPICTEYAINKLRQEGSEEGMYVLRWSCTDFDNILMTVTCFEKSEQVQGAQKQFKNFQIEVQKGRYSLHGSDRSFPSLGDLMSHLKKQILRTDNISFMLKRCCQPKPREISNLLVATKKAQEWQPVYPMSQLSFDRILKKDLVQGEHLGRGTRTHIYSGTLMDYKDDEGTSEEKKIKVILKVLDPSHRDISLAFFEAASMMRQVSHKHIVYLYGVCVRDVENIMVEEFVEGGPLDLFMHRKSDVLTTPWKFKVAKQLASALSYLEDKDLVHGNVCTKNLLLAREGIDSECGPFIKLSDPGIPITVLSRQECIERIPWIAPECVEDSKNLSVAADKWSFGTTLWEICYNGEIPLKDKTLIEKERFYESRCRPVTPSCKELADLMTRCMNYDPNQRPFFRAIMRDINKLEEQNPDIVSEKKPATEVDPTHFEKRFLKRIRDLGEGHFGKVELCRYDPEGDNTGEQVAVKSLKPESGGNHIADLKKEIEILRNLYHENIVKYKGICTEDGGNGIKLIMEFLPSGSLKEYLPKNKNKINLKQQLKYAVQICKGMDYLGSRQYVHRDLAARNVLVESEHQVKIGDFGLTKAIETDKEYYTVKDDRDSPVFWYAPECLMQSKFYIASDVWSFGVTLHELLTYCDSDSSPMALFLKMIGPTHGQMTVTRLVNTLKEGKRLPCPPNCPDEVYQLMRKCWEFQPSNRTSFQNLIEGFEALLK
Protocol: as §1

FGFR1 = FGFR1 (Homo sapiens, UniProt P11362); assay: Kinome profiling FGFR1; conditions: read-out: Inhibitory activity FGFR1; for inhibition at 0.1 µM: 100 nM
Protocol: as §1

RSK3 = RSK3 (Homo sapiens, UniProt Q15349); assay: Kinome profiling RSK3; conditions: read-out: Inhibitory activity RSK3; for inhibition at 0.1 µM: 100 nM
RSK3, sequence (Q15349 whole entry): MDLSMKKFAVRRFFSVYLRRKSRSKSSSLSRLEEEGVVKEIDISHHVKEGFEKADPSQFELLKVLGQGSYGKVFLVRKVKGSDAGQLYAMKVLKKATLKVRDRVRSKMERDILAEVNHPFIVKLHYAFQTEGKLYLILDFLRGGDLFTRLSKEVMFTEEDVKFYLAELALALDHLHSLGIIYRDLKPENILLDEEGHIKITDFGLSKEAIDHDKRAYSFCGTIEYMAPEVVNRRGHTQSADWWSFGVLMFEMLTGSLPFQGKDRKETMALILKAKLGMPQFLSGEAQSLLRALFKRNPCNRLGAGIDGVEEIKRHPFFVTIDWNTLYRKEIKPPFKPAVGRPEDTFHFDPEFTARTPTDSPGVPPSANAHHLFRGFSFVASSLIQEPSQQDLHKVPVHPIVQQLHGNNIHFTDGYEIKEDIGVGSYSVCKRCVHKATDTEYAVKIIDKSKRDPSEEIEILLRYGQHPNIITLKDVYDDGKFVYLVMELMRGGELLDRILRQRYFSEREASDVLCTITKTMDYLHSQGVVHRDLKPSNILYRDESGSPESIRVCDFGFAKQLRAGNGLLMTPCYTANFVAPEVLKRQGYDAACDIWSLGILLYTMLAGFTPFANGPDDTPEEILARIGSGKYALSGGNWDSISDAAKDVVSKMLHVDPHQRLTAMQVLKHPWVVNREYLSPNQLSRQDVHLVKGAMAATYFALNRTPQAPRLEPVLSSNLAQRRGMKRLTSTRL
Protocol: as §1

FLT-1 = FLT-1 (Homo sapiens, UniProt P17948); assay: Kinome profiling FLT-1; conditions: read-out: Inhibitory activity FLT-1; for inhibition at 0.1 µM: 100 nM
FLT-1, sequence (P17948 27-1338): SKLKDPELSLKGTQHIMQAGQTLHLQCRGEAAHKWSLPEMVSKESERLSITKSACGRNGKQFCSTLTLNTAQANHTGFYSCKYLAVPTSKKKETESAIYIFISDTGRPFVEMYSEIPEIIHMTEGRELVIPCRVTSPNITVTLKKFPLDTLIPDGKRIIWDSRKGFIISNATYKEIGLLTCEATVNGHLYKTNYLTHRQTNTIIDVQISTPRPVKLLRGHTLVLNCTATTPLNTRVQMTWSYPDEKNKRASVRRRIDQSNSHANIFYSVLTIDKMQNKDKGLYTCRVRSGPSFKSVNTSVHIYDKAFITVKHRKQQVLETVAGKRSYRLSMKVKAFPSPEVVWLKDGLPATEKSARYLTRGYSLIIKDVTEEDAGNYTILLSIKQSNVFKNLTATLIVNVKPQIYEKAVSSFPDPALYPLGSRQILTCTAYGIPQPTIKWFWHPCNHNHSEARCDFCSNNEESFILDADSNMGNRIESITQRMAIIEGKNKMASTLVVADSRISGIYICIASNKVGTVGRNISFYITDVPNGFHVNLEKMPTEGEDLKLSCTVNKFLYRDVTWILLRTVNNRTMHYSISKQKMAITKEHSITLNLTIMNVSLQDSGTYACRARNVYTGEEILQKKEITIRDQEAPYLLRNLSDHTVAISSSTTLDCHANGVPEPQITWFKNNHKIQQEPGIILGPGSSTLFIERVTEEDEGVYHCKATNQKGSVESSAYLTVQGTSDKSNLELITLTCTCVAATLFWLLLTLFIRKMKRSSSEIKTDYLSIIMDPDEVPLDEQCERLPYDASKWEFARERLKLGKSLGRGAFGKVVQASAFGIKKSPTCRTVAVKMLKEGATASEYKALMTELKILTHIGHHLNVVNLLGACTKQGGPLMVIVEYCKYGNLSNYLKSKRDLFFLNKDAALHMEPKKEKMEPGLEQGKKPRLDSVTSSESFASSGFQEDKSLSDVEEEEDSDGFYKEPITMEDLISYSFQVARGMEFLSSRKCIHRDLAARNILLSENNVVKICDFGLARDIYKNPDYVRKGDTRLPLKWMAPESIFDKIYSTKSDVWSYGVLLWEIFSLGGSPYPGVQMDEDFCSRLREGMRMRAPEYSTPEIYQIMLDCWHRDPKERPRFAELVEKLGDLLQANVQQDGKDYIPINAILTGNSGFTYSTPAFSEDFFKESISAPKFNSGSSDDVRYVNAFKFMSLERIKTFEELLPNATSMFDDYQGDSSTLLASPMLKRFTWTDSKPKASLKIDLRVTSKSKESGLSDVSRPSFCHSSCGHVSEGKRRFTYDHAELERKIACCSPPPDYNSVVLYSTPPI
Protocol: as §1

TSSK2 = molecular target: T3, TSSK2 (Homo sapiens, UniProt Q96PF2); assay: Kinome profiling TSSK2; conditions: read-out: Inhibitory activity TSSK2; for inhibition at 0.1 µM: 100 nM
T3 sequence (Q96PF2 1-358): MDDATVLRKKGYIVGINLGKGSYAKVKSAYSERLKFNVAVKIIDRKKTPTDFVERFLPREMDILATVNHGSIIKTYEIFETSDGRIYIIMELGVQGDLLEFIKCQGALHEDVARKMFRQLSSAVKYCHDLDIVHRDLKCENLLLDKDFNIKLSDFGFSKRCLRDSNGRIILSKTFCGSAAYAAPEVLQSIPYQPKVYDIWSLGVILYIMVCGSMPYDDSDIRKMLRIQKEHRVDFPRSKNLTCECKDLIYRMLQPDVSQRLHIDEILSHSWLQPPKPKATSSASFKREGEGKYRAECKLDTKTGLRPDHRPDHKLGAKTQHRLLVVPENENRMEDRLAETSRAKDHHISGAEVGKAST
Protocol: as §1

PRKX = molecular target: T4, PRKX (Homo sapiens, UniProt P51817); assay: Kinome profiling PRKX; conditions: read-out: Inhibitory activity PRKX; for inhibition at 0.1 µM: 100 nM
T4 sequence (P51817 1-358): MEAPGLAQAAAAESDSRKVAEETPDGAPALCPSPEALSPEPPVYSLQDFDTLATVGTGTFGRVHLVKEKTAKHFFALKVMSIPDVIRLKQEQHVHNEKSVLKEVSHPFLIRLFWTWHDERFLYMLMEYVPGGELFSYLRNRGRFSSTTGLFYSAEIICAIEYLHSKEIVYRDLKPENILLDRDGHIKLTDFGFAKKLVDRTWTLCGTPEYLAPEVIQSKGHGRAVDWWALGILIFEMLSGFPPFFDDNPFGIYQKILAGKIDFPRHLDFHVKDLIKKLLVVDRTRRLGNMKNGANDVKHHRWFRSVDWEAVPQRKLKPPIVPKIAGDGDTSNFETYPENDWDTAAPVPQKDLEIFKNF
Protocol: as §1

KIT = KIT (Homo sapiens, UniProt P10721); assay: Kinome profiling KIT; conditions: read-out: Inhibitory activity KIT; for inhibition at 0.1 µM: 100 nM
Protocol: as §1

PAK3 = PAK3 (Homo sapiens, UniProt O75914); assay: Kinome profiling PAK3; conditions: read-out: Inhibitory activity PAK3; for inhibition at 0.1 µM: 100 nM
PAK3, sequence (O75914 whole entry): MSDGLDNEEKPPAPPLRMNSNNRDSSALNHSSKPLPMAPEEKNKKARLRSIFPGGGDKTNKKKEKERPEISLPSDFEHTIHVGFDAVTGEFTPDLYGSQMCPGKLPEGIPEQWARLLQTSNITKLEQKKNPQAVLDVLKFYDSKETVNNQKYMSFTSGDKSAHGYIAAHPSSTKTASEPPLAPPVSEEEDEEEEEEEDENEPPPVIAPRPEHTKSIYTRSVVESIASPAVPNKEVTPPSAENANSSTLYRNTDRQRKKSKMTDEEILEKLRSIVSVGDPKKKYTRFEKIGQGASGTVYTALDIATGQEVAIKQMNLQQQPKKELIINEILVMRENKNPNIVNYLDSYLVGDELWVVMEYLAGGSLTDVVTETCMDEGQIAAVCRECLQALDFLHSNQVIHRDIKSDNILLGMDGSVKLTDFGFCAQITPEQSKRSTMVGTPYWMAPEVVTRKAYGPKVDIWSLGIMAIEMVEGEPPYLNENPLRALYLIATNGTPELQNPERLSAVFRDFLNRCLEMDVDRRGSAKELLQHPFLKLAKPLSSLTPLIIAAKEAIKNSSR
Protocol: as §1

CLK3 = CLK3 (Homo sapiens, UniProt P49761); assay: Kinome profiling CLK3; conditions: read-out: Inhibitory activity CLK3; for inhibition at 0.1 µM: 100 nM
Protocol: as §1

LCK = LCK (Homo sapiens, UniProt P06239); assay: Kinome profiling LCK; conditions: for inhibition at 0.1 µM: 100 nM
LCK, sequence (P06239 whole entry): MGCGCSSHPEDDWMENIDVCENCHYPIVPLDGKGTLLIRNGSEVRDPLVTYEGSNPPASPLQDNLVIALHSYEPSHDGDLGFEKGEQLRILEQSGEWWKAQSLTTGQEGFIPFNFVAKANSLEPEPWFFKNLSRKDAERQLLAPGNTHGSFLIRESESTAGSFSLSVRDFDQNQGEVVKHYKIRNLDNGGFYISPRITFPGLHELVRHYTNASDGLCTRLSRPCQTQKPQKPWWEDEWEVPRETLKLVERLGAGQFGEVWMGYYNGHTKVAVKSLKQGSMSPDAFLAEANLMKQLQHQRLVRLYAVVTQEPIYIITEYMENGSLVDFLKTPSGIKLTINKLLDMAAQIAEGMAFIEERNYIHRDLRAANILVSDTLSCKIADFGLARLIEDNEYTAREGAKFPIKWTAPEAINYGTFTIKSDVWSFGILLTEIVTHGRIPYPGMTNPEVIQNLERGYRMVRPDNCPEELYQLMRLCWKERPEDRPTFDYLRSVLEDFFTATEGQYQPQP
Protocol: as §1

[1] = Table 4, read-out: Inhibitory Activity LCK
[2] = read-out: Inhibitory activity LCK

Row | Compound | inhibition at 0.1 µM (PRAK) [%] | inhibition at 1 µM (PRAK) [%] | inhibition at 0.1 µM (SGK2) [%] | inhibition at 1 µM (SGK2) [%] | inhibition at 0.1 µM (PIM3) [%] | inhibition at 1 µM (PIM3) [%] | inhibition at 0.1 µM (NEK6) [%] | inhibition at 1 µM (NEK6) [%] | inhibition at 0.1 µM (JAK1) [%] | inhibition at 1 µM (JAK1) [%] | inhibition at 0.1 µM (FGFR1) [%] | inhibition at 1 µM (FGFR1) [%] | inhibition at 0.1 µM (RSK3) [%] | inhibition at 1 µM (RSK3) [%] | inhibition at 0.1 µM (FLT-1) [%] | inhibition at 1 µM (FLT-1) [%] | inhibition at 0.1 µM (TSSK2) [%] | inhibition at 1 µM (TSSK2) [%] | inhibition at 0.1 µM (PRKX) [%] | inhibition at 1 µM (PRKX) [%] | further results
1 | COc1cc(-c2cc(-c3ccc(N4CCNCC4)cc3)cnc2C)cc(OC)c1OC [Compound 10, 1-(4-(6-methyl-5-(3,4,5-trimethoxyphenyl)pyridin-3-yl)phenyl)piperazine] | 0 | 3 | 1 | -1 | 3 | 4 | 1 | 0 | 2 | 2 | 5 | 5 | 3 | 3 | 8 | 16 | 4 | 4 | 0 | 1 | inhibition at 0.1 µM (KIT): 5%; inhibition at 1 µM (KIT): 12%; inhibition at 0.1 µM (PAK3): 2%; inhibition at 1 µM (PAK3): 2%; inhibition at 0.1 µM (CLK3): 9%; inhibition at 1 µM (CLK3): 12%; inhibition at 0.1 µM (LCK; [1]): 21%; inhibition at 0.1 µM (LCK; [2]): 21%; inhibition at 1 µM (LCK; [1]): 65%; inhibition at 1 µM (LCK; [2]): 65%
2 | COc1cc(-c2cc(-c3ccc(N4CCNCC4)cc3)cnc2N)cc(OC)c1OC [Compound 15, 5-(4-(piperazin-1-yl)phenyl)-3-(3,4,5-trimethoxyphenyl)pyridin-2-amine] | 1 | 1 | 2 | 3 | 1 | -1 | 0 | 4 | 1 | 0 | 3 | 8 | 2 | 3 | 3 | 5 | 1 | 1 | 1 | 0 | inhibition at 0.1 µM (KIT): 5%; inhibition at 1 µM (KIT): 22%; inhibition at 0.1 µM (PAK3): 1%; inhibition at 1 µM (PAK3): 1%; inhibition at 0.1 µM (CLK3): 0%; inhibition at 1 µM (CLK3): 0%; inhibition at 0.1 µM (LCK; [2]): 65%; inhibition at 1 µM (LCK; [2]): 86%

Reference: patent publication US20170190705A1, “Compositions and Methods for Inhibiting BMP” (THE BRIGHAM AND WOMAN'S HOSPITAL, INC., priority 2014, published 2017)
